# Assay results published in patent publication US4826994A, “Production of substituted 1,3,4,9-tetrahydropyrano(3,4-B)indole-1-acetic acids” (American Home Products Corporation, priority 1988, dated 1989).
# Key:
# [1] = Randall Selitto Test in the Rat (pain threshold in inflamed paw); format: in vivo, Male Sprague Dawley rats; details: rats; for ED50: Rattus norvegicus, po, 1 hour after dosing, value in parentheses, read-out: Randall Selitto Test in the Rat, ED50 (dose which causes analgesia in 50% of the animals)
# Description: An additional test used to determine the utility of the compounds of the present invention is designated: Randall Selitto Test in the Rat
# The objective of this test is to assess the potency of peripheral and central acting drugs in inhibiting the reaction of rats to painful stimulation applied to an inflamed paw.
# Male Sprague Dawley rats (180-200 g) are used. The animals are fasted overnight prior to drug administration.
# (§1) Drug Preparation and Administration:
# Freund's Complete Adjuvant (FCA) is prepared by suspending 5 mg killed and dried mycobacterium butyricum (Difco) in 1 mL mineral oil. The test compounds are dissolved or suspended in 0.5% Tween 80 in distilled water according to their solubility. They are administered by gastric gavage in a volume of 0.5 mL/100 g body weight to groups of 10 animals.
# Ten rats are used per group. The method is essentially that described by Randall and Selitto, Arch. Int. Pharmacodyn. 111, 409 (1957) and the apparatus which is used to apply pressure to the paw (Analgesi-meter for the rat paw, Ugo Basile, Comeria, Italy) is a modification of that described by Gilfoil et al, J. Pharmacol. 142, 1 (1963). The instrument is basically a device which exerts a force that increases at a constant rate. The force is continuously monitored by a pointer moving along a linear scale and is measured in grams. The inflammatory reaction is induced in the left hind paw of rats of injecting 0.1 mL of Freund's adjuvant intradermally. The test compound or vehicle is administered 24 hours after the adjuvant. The pain threshold (vocalization) is determined 1 hour later in the inflamed paw of the treated and control groups.
# Presentation of Results and Criteria for Activity:
# Each animal which has a reading 1.5 times greater than the mean reading of the control-group will be considered as responsive (having an analgesic effect) to treatment. The number of animals showing an analgesic effect is then determined in each group.
# The ED50 (dose which causes analgesia in 50% of the animals) using at least 3 doses is then determined, by the method described in Litchfield and Wilcoxon, J. Pharmacol. Exp. Ther., 96, 99-113 (1949).
# [2] = Preventative Adjuvant Edema (acute anti-inflammatory effect in rats); format: in vivo, Male Sprague Dawley rats; set-up: inhibition in vivo: dose or concentration left out as unconfirmed; details: for ED50 / inhibition in vivo / inhibition in vivo at 25 mg/kg: Rattus norvegicus, po, 72 h; for ED50: value in parentheses; for inhibition in vivo / inhibition in vivo at 25 mg/kg: read-out: Preventative Adjuvant Edema, percent inhibition
# Experimental: This test is a primary screen for anti-inflammatory drugs.
# Male Sprague Dawley rats (180-200 g) are used. The animals have free access to water but food is withdrawn 18 hours before testing.
# Drug Preparations and Administration:
# Freund's complete adjuvant is prepared by suspending 5 mg of killed and dried Mycobacterium butyricum (Difco) in 1 mL mineral oil. The test compounds are dissolved, of suspended in 0.5% Tween 80 in distilled water according to their solubility. For primary screening all drugs are administered by gastric lavage at the arbitrary dosage of 25 mg/kg, p.o. in a volume of 0.5 mL/100 g body weight to groups of 10 animals.
# The method is essentially that described by Wax et al, J. Pharmacol. Exp. Ther., 192, 166-171 (1975). Groups of rats are injected intradermally in the left hind paw with 0.1 mL of Freund's complete adjuvant. The test compound or vehicle is administered immediately before the adjuvant, 24 hours and 48 hours after the adjuvant (days 0, 1 and 2). The injected hind paw volume is measured before the injection of adjuvant and 24 hrs. after the last drug administration (day 3) by means of a plethysmometer (Buxco Electronics Inc.). The difference between the hind paw volume on day 0 and day 3 represents the edema volume. Etodolac (25 mg/kg, p.o.) is included as a positive control.
# The mean edema volume (expressed as mL±SEM) is calculated for each group and the percentage protection conferred by the drug is calculated: [formula] where c is the mean edema volume for the vehicle-treated (0.5% Tween 80 in distilled water) controls and t is the mean edema volume for the drug treated group.
# [3] = Drug Effects on Phenylbenzoquinone-induced Writhing in Mice; format: in vivo, Male Swiss albino mice; details: Mus musculus, po, value in parentheses, read-out: Phenylquinone Writhing in Mice, ED50
# Experimental: A further test used to determine the utility of the compounds of the present invention is designated: Drug Effects on Phenylbenzoquinone-induced Writhing in Mice
# The objective of this test is to determine the ability of test drugs to inhibit the nociceptive (pain) response of mice injected with a chemical irritant. This test is a primary screen for both peripheral and centrally acting analgesic drugs.
# Male Swiss albino mice (15-25 g). The animals are fasted for 18 hours prior to use but have free access to water.
# as §1
# Drugs are dissolved or suspended according to their solubility in 0.5% Tween 80 in distilled water. They are administered by gastric gavage in a volume of 5 mL/kg. For primary screening all drugs are administered at the arbitrary dosage of 25 mg/kg, p.o. to a group of 10 mice.
# A modification of the method of Siegmund et al, Proc. Soc. Exp. Biol. Med., 95, 729-731 (1957) is used. Groups of 5 mice are dosed with the test compound or vehicle control. Sixty minutes later the animals are injected i.p. with 0.3 mL/20 g body weight of a 0.02% solution of phenylbenzoquinone (PBQ; 2-phenyl-1,4-benzoquinone) and placed in individual observation boxes. The number of writhing or abdominal squirming movements made by each mouse during the following 15 min. period is counted. The experiment is repeated with another group of 5 mice and the mean number of writhes per mouse for a group of 10 mice is calculated.
# Drug treated and vehicle-treated control groups are compared and the percentage protection conferred by the drug is calculated: [formula] where c=mean number of writhes in the control group where t=mean number of writhes in the test drug group
# [4] = as above; format: in vivo, Male Swiss albino mice; details: Mus musculus, po, Tested at 10 mg/kg, p.o., read-out: Phenylquinone Writhing in Mice, percent inhibition
SMILES,ED50 [3] [mg/kg],ED50 [1] [mg/kg],inhibition in vivo ([2]; p.o.) [%],inhibition in vivo at 10 mg/kg [4] [%],further results
"C=CCC1COC(CC)(CC(=O)O)c2[nH]c3c(CC)c(F)ccc3c21 (single isomer, unassigned) [Example 10]",7,,,,"Randall Selitto Test in the Rat, percent inhibition ([1]; Tested at 5 mg/kg, p.o.): 60%; ED50 [2]: 7.8 mg/kg"
"C=CCC1COC(CC)(CC(=O)O)c2[nH]c3c(CCC)cccc3c21 (single isomer, unassigned) [Example 12, 1-ethyl-1,3,4,9-tetrahydro-4-(2-propenyl)-8-propyl-pyrano[3,4-b]indole-1-acetic acid]",9.5,1,32,,
"C=CCC1COC(CC)(CC(=O)O)c2[nH]c3c(C)c(Cl)ccc3c21 (single isomer, unassigned) [Example 16, 7-chloro-1-ethyl-1,3,4,9-tetrahydro-8-methyl-4-(2-propenyl)-pyrano[3,4-b]indole-1-acetic acid]",5.5,0.012,,,ED50 [2]: 3 mg/kg
"CCC1(CC(=O)O)OCC(Cc2ccccc2)c2c1[nH]c1c(Cl)c(Cl)ccc21 (single isomer, unassigned) [Example 18, 7,8-dichloro-1-ethyl-1,3,4,9-tetrahydro-4-(phenylmethyl)-pyrano[3,4-b]indole-1-acetic acid]",3.2,0.8,,,"inhibition in vivo at 25 mg/kg ([2]; 25 mg/kg, p.o.): 15%"
"CCC1(CC(=O)O)OCC(Cc2ccccc2)c2c1[nH]c1c(C)c(Cl)ccc21 (single isomer, unassigned) [Example 19, 7-chloro-1-ethyl-1,3,4,9-tetrahydro-8-methyl-4-(phenylmethyl)-pyrano[3,4-b]indole-1-acetic acid]",3.3,1.6,,,"inhibition in vivo at 25 mg/kg ([2]; 25 mg/kg, p.o.): 52%"
"CCC1(CC(=O)O)OCC(Cc2ccccc2)c2c1[nH]c1c(C)cccc21 (single isomer, unassigned) [Example 22, 1-ethyl-1,3,4,9-tetrahydro-8-methyl-4-(phenylmethyl)-pyrano[3,4-b]indole-1-acetic acid]",4.7,0.25,,,"Preventative Adjuvant Edema, percent inhibition ([2]; 25 mg/kg, p.o.): 47%"
"CCC1(CC(=O)O)OCC(Cc2ccc(Cl)cc2)c2c1[nH]c1ccccc21 (single isomer, unassigned) [Example 42]",,,18,24,
"CCC1(CC(=O)O)OCC(Cc2ccc(F)cc2)c2c1[nH]c1ccccc21 (single isomer, unassigned) [Example 43]",,,25,47,
"CCC1(CC(=O)O)OCC(Cc2cccc(C(F)(F)F)c2)c2c1[nH]c1ccccc21 (single isomer, unassigned) [Example 44]",,,25,22,
"CCC1(CC(=O)O)OCC(Cc2ccc(F)cc2F)c2c1[nH]c1ccccc21 (single isomer, unassigned) [Example 45]",,,45,29,
"CCC1(CC(=O)O)OCC(Cc2ccccc2)c2c1[nH]c1ccccc21 (single isomer, unassigned; isomer a) [Example 1, 1-Ethyl-1,3,4,9-tetrahydro-4-(phenylmethyl)-pyrano[3,4-b]indole-1-acetic Acid (Isomer A)]",1.9,0.003,,,"inhibition in vivo at 25 mg/kg ([2]; 25 mg/kg, p.o.): 37%"
